Test results published in ChEMBL document CHEMBL5625159, “Challenges for the development of mutant isocitrate dehydrogenases 1 inhibitors to treat glioma” (Eur J Med Chem, 2023).
Blank lines part the entries; values can stand above or below the molecule they belong to.

Key:
[1] = molecular target: T1, Isocitrate dehydrogenase [NADP] cytoplasmic (Homo sapiens, UniProt O75874, R132H); assay: Inhibition of human IDH1 R132H mutant heterodimer in presence of alpha-ketoglutarate and NADPH by fluorescence based biochemical assay
T1 sequence (O75874 2-414 R132H limits assumed): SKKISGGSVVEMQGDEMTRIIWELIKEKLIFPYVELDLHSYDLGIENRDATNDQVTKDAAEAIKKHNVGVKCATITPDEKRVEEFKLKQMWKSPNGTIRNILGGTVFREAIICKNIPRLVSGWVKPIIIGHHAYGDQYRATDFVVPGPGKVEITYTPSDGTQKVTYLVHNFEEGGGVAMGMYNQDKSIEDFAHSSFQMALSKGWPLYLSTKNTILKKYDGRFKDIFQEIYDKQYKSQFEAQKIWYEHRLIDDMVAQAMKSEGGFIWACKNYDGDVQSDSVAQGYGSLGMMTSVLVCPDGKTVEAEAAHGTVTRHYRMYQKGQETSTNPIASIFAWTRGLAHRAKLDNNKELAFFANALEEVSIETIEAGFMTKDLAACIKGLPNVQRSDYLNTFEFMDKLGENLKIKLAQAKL

[2] = molecular target: T1, Isocitrate dehydrogenase [NADP] cytoplasmic; assay: Inhibition of IDH1 R132H mutant (unknown origin) expressed in Escherichia coli in presence of alpha-KG and NADPH by fluorescence based biochemical assay
[3] = Inhibition of IDH2 R172Q mutant (unknown origin); parameters: species or system Homo sapiens
U-87 MG [4] = assay: Antiproliferative activity against human U-87 MG cells harboring IDH1 R132H mutant measured after 72 hrs by MTT assay; assay type: functional, cell-based, U-87MG ATCC
HT-1080 [5] = assay: Antiproliferative activity against human HT-1080 cells harboring IDH1 […] mutant measured after 72 hrs by MTT assay; assay type: functional, cell-based; conditions: HT-1080, 72 h
[6] = molecular target: T1, Isocitrate dehydrogenase [NADP] cytoplasmic; assay: Inhibition of full length N-terminal GST-tagged human IDH1 R132H mutant expressed in Escherichia coli in presence of alpha-KG by fluorescence based biochemical assay
[7] = molecular target: T2, Isocitrate dehydrogenase [NADP] cytoplasmic (Homo sapiens, UniProt O75874); assay: Inhibition of IDH1 (unknown origin) expressed in Escherichia coli BL21 (DE3) cells using 2OG as substrate preincubated with compound for 2 hrs followed by substrate addition and measured after 1 hrs by spectrophotometric analysis
T2 sequence (O75874 whole entry): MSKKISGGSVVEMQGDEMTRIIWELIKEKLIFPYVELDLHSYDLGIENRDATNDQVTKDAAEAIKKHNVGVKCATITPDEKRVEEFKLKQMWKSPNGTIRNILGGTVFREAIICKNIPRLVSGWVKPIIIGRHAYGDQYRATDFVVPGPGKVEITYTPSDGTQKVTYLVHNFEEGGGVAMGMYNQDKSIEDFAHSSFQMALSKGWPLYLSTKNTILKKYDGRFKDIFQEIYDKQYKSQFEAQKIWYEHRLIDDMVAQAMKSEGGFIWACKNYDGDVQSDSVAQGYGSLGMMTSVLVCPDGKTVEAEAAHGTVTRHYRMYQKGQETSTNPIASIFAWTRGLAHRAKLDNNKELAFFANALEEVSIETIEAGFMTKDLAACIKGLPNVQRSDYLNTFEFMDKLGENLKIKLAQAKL

[8] = molecular target: T1, Isocitrate dehydrogenase [NADP] cytoplasmic; assay: Inhibition of human IDH1 R132H mutant
TF-1 = assay: Anticancer activity against human TF-1 cells assessed as cell growth inhibition; assay type: functional, cell-based
[9] = Selectivity index, ratio of IC50 for inhibition of wildtype IDH2 (unknown origin) to IC50 for inhibition of IDH2 R140Q mutant (unknown origin)
[10] = Brain to plasma ratio in mouse at 50 mg/kg, iv; assay type: ADME, organism-based; conditions: brain and plasma, read-out: BPR
[11] = molecular target: T1, Isocitrate dehydrogenase [NADP] cytoplasmic; assay: Inhibition of human […] IDH1 R132H mutant expressed in Escherichia coli BL21 (DE3) cells incubated for 60 mins by fluorescence based analysis
[12] = molecular target: T3, Isocitrate dehydrogenase [NADP] cytoplasmic (Homo sapiens, UniProt O75874, R132C); assay: Inhibition of human […] IDH1 R132C mutant expressed in Escherichia coli BL21 (DE3) cells incubated for 60 mins by fluorescence based analysis
T3 sequence (O75874 2-414 R132C limits assumed): as the sequence (O75874 2-414 R132H limits assumed) above, with H131C counted along it

[13] = molecular target: T3, Isocitrate dehydrogenase [NADP] cytoplasmic; assay: Inhibition of IDH1 R132C mutant (unknown origin) expressed in Escherichia coli BL21 (DE3) cells
[14] = molecular target: T4, Isocitrate dehydrogenase [NADP], mitochondrial (Homo sapiens, UniProt P48735); assay: Inhibition of wildtype IDH2 (unknown origin)
T4 sequence (P48735 whole entry): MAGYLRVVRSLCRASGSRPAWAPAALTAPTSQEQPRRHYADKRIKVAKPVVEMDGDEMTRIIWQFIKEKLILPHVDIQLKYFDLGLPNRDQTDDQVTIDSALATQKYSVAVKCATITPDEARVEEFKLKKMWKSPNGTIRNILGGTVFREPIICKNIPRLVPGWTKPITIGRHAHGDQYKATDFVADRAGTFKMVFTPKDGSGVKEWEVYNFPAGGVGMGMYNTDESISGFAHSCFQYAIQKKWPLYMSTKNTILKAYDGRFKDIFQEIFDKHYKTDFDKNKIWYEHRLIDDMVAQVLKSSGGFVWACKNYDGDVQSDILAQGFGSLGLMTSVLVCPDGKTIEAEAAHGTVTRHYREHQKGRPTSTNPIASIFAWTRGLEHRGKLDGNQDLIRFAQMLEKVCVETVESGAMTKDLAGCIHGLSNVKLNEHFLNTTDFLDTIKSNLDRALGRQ

[15] = molecular target: T2, Isocitrate dehydrogenase [NADP] cytoplasmic; assay: Inhibition of human recombinant wildtype IDH1
[16] = molecular target: T5, Isocitrate dehydrogenase [NADP], mitochondrial (Homo sapiens, UniProt P48735, R140Q); assay: Inhibition of IDH2 R140Q mutant (unknown origin) in the presence of NADPH by fluorescence based analysis
T5 sequence (P48735 40-452 R140Q limits assumed): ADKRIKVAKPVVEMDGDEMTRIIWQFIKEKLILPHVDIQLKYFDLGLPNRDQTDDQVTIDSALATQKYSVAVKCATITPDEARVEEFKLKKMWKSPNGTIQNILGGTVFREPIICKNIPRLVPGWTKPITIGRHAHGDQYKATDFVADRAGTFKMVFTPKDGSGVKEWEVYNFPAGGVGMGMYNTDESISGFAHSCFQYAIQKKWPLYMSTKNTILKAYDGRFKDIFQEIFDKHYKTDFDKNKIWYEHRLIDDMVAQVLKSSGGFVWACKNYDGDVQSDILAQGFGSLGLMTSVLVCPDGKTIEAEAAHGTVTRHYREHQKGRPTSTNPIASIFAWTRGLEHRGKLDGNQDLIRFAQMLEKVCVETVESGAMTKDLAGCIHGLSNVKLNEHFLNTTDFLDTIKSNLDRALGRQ

[17] = molecular target: T2, Isocitrate dehydrogenase [NADP] cytoplasmic; assay: Inhibition of full length N-terminal GST-tagged human wild type IDH1 expressed in Escherichia coli in presence of NADPH by fluorescence based biochemical assay
[18] = molecular target: T1, Isocitrate dehydrogenase [NADP] cytoplasmic; assay: Inhibition of human recombinant IDH1 R132H mutant expressed in Escherichia coli BL21 (DE3) cells in presence of alpha-ketoglutarate and NADPH by fluorescence based biochemical assay
[19] = molecular target: T3, Isocitrate dehydrogenase [NADP] cytoplasmic; assay: Inhibition of C-terminal Hexahistidine-tagged human recombinant IDH1 R132C mutant expressed in Escherichia coli BL21 (DE3) cells assessed as NADPH consumption in presence of alpha KG incubated for 1 hr by MST assay
U-87 MG [20] = assay: Antiproliferative activity against human U-87 MG cells assessed as reduction in cell growth by CCK-8 assay; assay type: functional, cell-based, U-87MG ATCC
HT-1080 [21] = assay: Antiproliferative activity against human HT-1080 cells assessed as cell growth inhibition incubated for 48 hrs by sulforhodamine B assay; assay type: functional, cell-based; conditions: HT-1080, 48 h
[22] = molecular target: T1, Isocitrate dehydrogenase [NADP] cytoplasmic; assay: Inhibition of N-terminal His-tagged human recombinant IDH1 R132H mutant (1 to 414) expressed in Sf9 incubated for 60 mins by size-exclusion chromatography analysis
[23] = molecular target: T5, Isocitrate dehydrogenase [NADP], mitochondrial; assay: Inhibition of N-terminal His-tagged human recombinant IDH2 R140Q mutant (41 to 452) expressed in baculovirus system incubated for 60 mins by size-exclusion chromatography analysis
[24] = molecular target: T1, Isocitrate dehydrogenase [NADP] cytoplasmic; assay: Inhibition of C-terminal His8-tagged human recombinant IDH1 R132H mutant expressed as Escherichia coli BL21 (DE3) cells using alpha KG as substrate preincubated with compound for 30 mins followed by substrate addition measured after […] by HTS assay
HCT-116 = assay: Antiproliferative activity against human HCT-116 cells assessed as reduction in cell viability measured after 5 days by Celltiter-Glo assay; assay type: functional, cell-based; conditions: HCT-116, 120 h
HT-1080 [25] = assay: Antiproliferative activity against human HT-1080 cells assessed as cell growth inhibition by MTT assay; assay type: functional, cell-based

Compound: C[C@H](Nc1nc(N2C(=O)OC[C@@H]2[C@@H](C)O)c2cc[nH]c2n1)c1ccccc1F
IC50 [2]: 22 nM

Compound: C=CC(=O)N1CCN(Cc2ccc([C@H](C)Nc3ncc4c(n3)N(C(C)C)C(=O)OC4)cc2)CC1
IC50 [3]: 41800 nM
IC50 (U-87 MG [4]): 2.6 nM
IC50 (HT-1080 [5]): 9.39 nM

Compound: O=C(NCc1ccc(C(F)(F)F)cc1)c1nnn(-c2ccccc2Cl)c1-c1cccnc1
IC50 [19]: 28300 nM

Compound: C=CC(=O)N1CC(OCc2ccc([C@H](C)Nc3ncc4c(n3)N(CC(C)C)C(=O)OC4)cc2)C1
IC50 [3]: 96300 nM
IC50 (U-87 MG [4]): 1280 nM

Compound: FC1(F)CCC(Nc2nc(NC3CCC(F)(F)C3)nc(-c3cccc(C(F)(F)F)n3)n2)C1 (configuration not stated)
IC50 [22]: 6 nM
IC50 [23]: 16 nM

Compound: C=CC(=O)N1CCN(Cc2ccc([C@H](C)Nc3ncc4c(n3)N(C)C(=O)OC4)cc2)CC1
IC50 [3]: > 100000 nM
IC50 (U-87 MG [4]): 44.9 nM
IC50 (HT-1080 [5]): 2080 nM

Compound: O=C(O)C1CC2(C1)CC(C(=O)N1Cc3cccnc3Nc3ccccc31)C2 (configuration not stated)
IC50 [24]: > 30 nM

Compound: COc1ccccc1[C@H](C)Nc1nc(N2C(=O)OC[C@@H]2[C@@H](C)O)c2cc[nH]c2n1
IC50 [2]: 18.6 nM

Compound: C[C@H](Nc1nccc(N2CCCC2=O)n1)c1nc(-c2ccc(Cl)cc2)no1
IC50 [8]: 413 nM

Compound: CC(C)n1nc(C2=C(c3cn(CCCn4ccnc4)c4cc(Cl)ccc34)C(=O)NC2=O)c2cccnc21
IC50 [17]: ≥ 20000 nM
IC50 [13]: 380 nM
IC50 [6]: 50 nM

Compound: C=CC(=O)N1CCN(C(CC)c2ccc([C@H](C)Nc3nccc(N4CCOC4=O)n3)cc2)CC1 (some centres not stated)
IC50 [13]: 568 nM
IC50 (U-87 MG [4]): 2.2 nM
IC50 (HT-1080 [5]): 11.8 nM

Compound: COC(C)(C)c1onc(-c2c(Cl)cc(Cl)cc2Cl)c1C(=O)n1ccc2c(/C=C/C(=O)O)cccc21
IC50 [11]: 6 nM
IC50 [12]: 94 nM

Compound: C[C@H]1C[C@@H](n2c(Nc3ccc(OC(F)(F)F)cc3)nc3cc(CCC(=O)O)ccc32)CC(C)(C)C1 [BAY1436032]
IC50 (HCT-116): 47 nM
IC50 (HT-1080 [25]): 135 nM

Continued, in another order:

IC50 [1]: 180 nM
Compound: COC(=O)c1ccc2c(c1)nc(Nc1ccc(C(C)C)cc1)n2C1CC(C)CC(C)(C)C1 (configuration not stated)

IC50 [6]: 1540 nM
Compound: CC(C)n1nc(C2=C(c3cn(CCCn4ccnc4)c4cc(Cl)ccc34)C(=O)NC2=O)c2ccccc21

IC50 [7]: > 10000 nM
IC50 [8]: 8.4 nM
Ratio IC50 [9]: < 0.001
Kp [10]: 0.4
IC50 [11]: 8.4 nM
IC50 [12]: 11 nM
IC50 [13]: 11 nM
IC50 [14]: > 10000 nM
IC50 [15]: 180 nM
IC50 [16]: > 10000 nM
Compound: Cc1cn(C(=O)c2c(-c3c(Cl)cc(Cl)cc3Cl)noc2C(C)(C)F)c2cccc(/C=C/C(=O)O)c12 [SAFUSIDENIB]
IC50 (TF-1): 29 nM

IC50 [17]: ≥ 10000 nM
IC50 [6]: 160 nM
Compound: Cn1cc(C2=C(c3cn(CCCn4ccnc4)c4cc(Cl)ccc34)C(=O)NC2=O)c2cccnc21

IC50 [18]: 590 nM
Compound: O=C(Nc1ccccc1)c1nn(Cc2ccc(F)cc2)c2c1CN(C(=O)c1ccc[nH]1)CC2

IC50 [19]: 11000 nM
Compound: CSc1nn(-c2ccccc2C)c(-c2ccc3c(c2)OCCO3)c1-n1ccnc1

IC50 [8]: 338 nM
Compound: C[C@H](Nc1nccc(N2CCCC2=O)n1)c1nc(-c2ccc(Cl)cc2)cs1

IC50 (U-87 MG [20]): 19 nM
IC50 (U-87 MG [4]): 19 nM
IC50 [14]: 7200 nM
IC50 (HT-1080 [5]): 8 nM
IC50 (HT-1080 [21]): 8 nM
Compound: N#Cc1ccnc(N2C(=O)CC[C@H]2C(=O)N(c2cncc(F)c2)[C@H](C(=O)NC2CC(F)(F)C2)c2ccccc2Cl)c1 [IVOSIDENIB]

IC50 [24]: 5.9 nM
Compound: O=C(C1CC2(CC(O)C2)C1)N1Cc2cccnc2Nc2ccc(N3CCOCC3)cc21 (configuration not stated)

IC50 [8]: 24.1 nM
Compound: C[C@H](Nc1nccc(N2CCCC2=O)n1)c1ccc(Oc2ccccc2)cc1

IC50 (U-87 MG [4]): 18.6 nM
IC50 (HT-1080 [5]): 69.6 nM
Compound: C=CC(=O)N1CCN(Cc2ccc([C@H](C)Nc3ncc(F)c(N4C(=O)OCC4(C)C)n3)cc2)CC1
